{"source": "paper PMC7523345", "about": "(Investigational new drugs, 2018)", "assay": "Phase I dose escalation study: safety, tolerability, DLT and MTD", "assay_type": "in vivo", "note": "“Also recorded” adds a separate entry of the source."}
{"smiles": "Cc1cccc2c1NC(=O)[C@@H](NC(=O)[C@H](CCC(F)(F)F)[C@H](CCC(F)(F)F)C(N)=O)N=C2c1cccc(F)c1", "note": "[BMS-986115]", "values": [{"measurement": "Vision blurred (drug related AE, all grades)", "setting": "Arm B BIW 8 mg (N = 8)", "result": "1 (13) n (%)"}, {"measurement": "Vomiting (drug related AE, Grade 3 and 4)", "setting": "Arm B BIW 8 mg (N = 8)", "result": "0 n (%)"}, {"measurement": "Vomiting (drug related AE, all grades)", "setting": "Arm B BIW 8 mg (N = 8)", "result": "4 (50) n (%)"}, {"measurement": "Weight decreased (drug related AE, all grades)", "setting": "Arm B BIW 8 mg (N = 8)", "result": "0 n (%)"}, {"measurement": "No. of patients with DLTs", "setting": "Arm B BIW 8 mg, 6 DLT evaluable patients", "result": 2}, {"measurement": "Abdominal distension (drug related AE, all grades)", "setting": "Arm B BIW Total (N = 12)", "result": "1 (8) n (%)"}, {"measurement": "Abdominal pain (drug related AE, Grade 3 and 4)", "setting": "Arm B BIW Total (N = 12)", "result": "0 n (%)"}, {"measurement": "Abdominal pain (drug related AE, all grades)", "setting": "Arm B BIW Total (N = 12)", "result": "1 (8) n (%)"}, {"measurement": "Blood creatinine increased (drug related AE, all grades)", "setting": "Arm B BIW Total (N = 12)", "result": "1 (8) n (%)"}, {"measurement": "Colitis (drug related AE, Grade 3 and 4)", "setting": "Arm B BIW Total (N = 12)", "result": "0 n (%)"}, {"measurement": "Cough (drug related AE, Grade 3 and 4)", "setting": "Arm B BIW Total (N = 12)", "result": "0 n (%)"}, {"measurement": "Cough (drug related AE, all grades)", "setting": "Arm B BIW Total (N = 12)", "result": "1 (8) n (%)"}, {"measurement": "Decreased Appetite (drug related AE, Grade 3 and 4)", "setting": "Arm B BIW Total (N = 12)", "result": "1 (8) n (%)"}, {"measurement": "Decreased Appetite (drug related AE, all grades)", "setting": "Arm B BIW Total (N = 12)", "result": "5 (42) n (%)"}, {"measurement": "Dehydration (drug related AE, Grade 3 and 4)", "setting": "Arm B BIW Total (N = 12)", "result": "1 (8) n (%)"}, {"measurement": "Dehydration (drug related AE, all grades)", "setting": "Arm B BIW Total (N = 12)", "result": "2 (17) n (%)"}, {"measurement": "Dermatitis acneiform (drug related AE, all grades)", "setting": "Arm B BIW Total (N = 12)", "result": "0 n (%)"}, {"measurement": "Diarrhoea (drug related AE, Grade 3 and 4)", "setting": "Arm B BIW Total (N = 12)", "result": "3 (25) n (%)"}, {"measurement": "Diarrhoea (drug related AE, all grades)", "setting": "Arm B BIW Total (N = 12)", "result": "8 (67) n (%)"}, {"measurement": "Dry mouth (drug related AE, all grades)", "setting": "Arm B BIW Total (N = 12)", "result": "1 (8) n (%)"}, {"measurement": "Dry skin (drug related AE, all grades)", "setting": "Arm B BIW Total (N = 12)", "result": "2 (17) n (%)"}, {"measurement": "Dysgeusia (drug related AE, all grades)", "setting": "Arm B BIW Total (N = 12)", "result": "2 (17) n (%)"}, {"measurement": "Dyspepsia (drug related AE, all grades)", "setting": "Arm B BIW Total (N = 12)", "result": "1 (8) n (%)"}, {"measurement": "Dysphonia (drug related AE, all grades)", "setting": "Arm B BIW Total (N = 12)", "result": "1 (8) n (%)"}, {"measurement": "Fatigue (drug related AE, Grade 3 and 4)", "setting": "Arm B BIW Total (N = 12)", "result": "0 n (%)"}, {"measurement": "Fatigue (drug related AE, all grades)", "setting": "Arm B BIW Total (N = 12)", "result": "6 (50) n (%)"}, {"measurement": "Flatulence (drug related AE, all grades)", "setting": "Arm B BIW Total (N = 12)", "result": "3 (25) n (%)"}, {"measurement": "Hypocalcaemia (drug related AE, Grade 3 and 4)", "setting": "Arm B BIW Total (N = 12)", "result": "1 (8) n (%)"}, {"measurement": "Hypocalcaemia (drug related AE, all grades)", "setting": "Arm B BIW Total (N = 12)", "result": "1 (8) n (%)"}, {"measurement": "Hypokalaemia (drug related AE, Grade 3 and 4)", "setting": "Arm B BIW Total (N = 12)", "result": "0 n (%)"}, {"measurement": "Hypokalaemia (drug related AE, all grades)", "setting": "Arm B BIW Total (N = 12)", "result": "3 (25) n (%)"}, {"measurement": "Hyponatraemia (drug related AE, Grade 3 and 4)", "setting": "Arm B BIW Total (N = 12)", "result": "1 (8) n (%)"}, {"measurement": "Hyponatraemia (drug related AE, all grades)", "setting": "Arm B BIW Total (N = 12)", "result": "1 (8) n (%)"}, {"measurement": "Hypophosphataemia (drug related AE, Grade 3 and 4)", "setting": "Arm B BIW Total (N = 12)", "result": "6 (50) n (%)"}, {"measurement": "Hypophosphataemia (drug related AE, all grades)", "setting": "Arm B BIW Total (N = 12)", "result": "7 (58) n (%)"}, {"measurement": "Ileus (drug related AE, Grade 3 and 4)", "setting": "Arm B BIW Total (N = 12)", "result": "0 n (%)"}, {"measurement": "Increased upper airway secretion (drug related AE, all grades)", "setting": "Arm B BIW Total (N = 12)", "result": "3 (25) n (%)"}, {"measurement": "Laryngeal pain (drug related AE, all grades)", "setting": "Arm B BIW Total (N = 12)", "result": "0 n (%)"}, {"measurement": "Leucocytosis (drug related AE, Grade 3 and 4)", "setting": "Arm B BIW Total (N = 12)", "result": "1 (8) n (%)"}, {"measurement": "Mouth ulceration (drug related AE, all grades)", "setting": "Arm B BIW Total (N = 12)", "result": "1 (8) n (%)"}, {"measurement": "Nausea (drug related AE, Grade 3 and 4)", "setting": "Arm B BIW Total (N = 12)", "result": "1 (8) n (%)"}, {"measurement": "Nausea (drug related AE, all grades)", "setting": "Arm B BIW Total (N = 12)", "result": "7 (58) n (%)"}, {"measurement": "Pruritus (drug related AE, Grade 3 and 4)", "setting": "Arm B BIW Total (N = 12)", "result": "0 n (%)"}, {"measurement": "Pruritus (drug related AE, all grades)", "setting": "Arm B BIW Total (N = 12)", "result": "3 (25) n (%)"}, {"measurement": "Pulmonary embolism (drug related AE, Grade 3 and 4)", "setting": "Arm B BIW Total (N = 12)", "result": "0 n (%)"}, {"measurement": "Rash (drug related AE, all grades)", "setting": "Arm B BIW Total (N = 12)", "result": "3 (25) n (%)"}, {"measurement": "Rash maculopapular (drug related AE, all grades)", "setting": "Arm B BIW Total (N = 12)", "result": "3 (25) n (%)"}, {"measurement": "Sinusitis (drug related AE, all grades)", "setting": "Arm B BIW Total (N = 12)", "result": "0 n (%)"}, {"measurement": "Urticaria (drug related AE, Grade 3 and 4)", "setting": "Arm B BIW Total (N = 12)", "result": "0 n (%)"}, {"measurement": "Vision blurred (drug related AE, all grades)", "setting": "Arm B BIW Total (N = 12)", "result": "1 (8) n (%)"}, {"measurement": "Vomiting (drug related AE, Grade 3 and 4)", "setting": "Arm B BIW Total (N = 12)", "result": "0 n (%)"}, {"measurement": "Vomiting (drug related AE, all grades)", "setting": "Arm B BIW Total (N = 12)", "result": "4 (33) n (%)"}, {"measurement": "Weight decreased (drug related AE, all grades)", "setting": "Arm B BIW Total (N = 12)", "result": "0 n (%)"}, {"measurement": "Patients with dose limiting toxicities", "setting": "Arm B BIW, all dose levels", "result": 2, "unit": "patients"}, {"measurement": "Treatment-related SAEs, description", "setting": "Arm B BIW, one line per subject", "result": "Gr 3 diarrhoea; also recorded: Gr 3 nausea, dehydration and decreased appetite"}, {"measurement": "Maximum Tolerated Dose (MTD)", "setting": "Arm B, twice weekly (BIW) oral dosing", "result": "not established"}, {"measurement": "Treatment-related deaths", "setting": "all 36 patients", "result": "no treatment-related deaths"}, {"measurement": "Subjects who discontinued due to treatment-related AEs", "setting": "all 36 subjects", "result": 5, "unit": "subjects"}, {"measurement": "Subjects who discontinued treatment due to AEs", "setting": "all 36 subjects", "result": 25, "unit": "%"}, {"measurement": "Subjects with treatment-related SAEs", "setting": "all 36 subjects", "result": 22, "unit": "%"}, {"measurement": "Subjects with SAEs", "setting": "all 36 subjects, overall", "result": 50, "unit": "%"}, {"measurement": "Hypokalaemia, treatment-related Gr 3 or 4 AE", "setting": "all patients", "result": 11, "unit": "%"}, {"measurement": "Hyponatraemia, treatment-related Gr 3 or 4 AE", "setting": "all patients", "result": 6, "unit": "%"}, {"measurement": "Nausea, treatment-related Gr 3 or 4 AE", "setting": "all patients", "result": 11, "unit": "%"}, {"measurement": "Decreased appetite, treatment related AE", "setting": "all patients, all grades", "result": 36, "unit": "%"}, {"measurement": "Diarrhoea, treatment related AE", "setting": "all patients, all grades", "result": 72, "unit": "%"}, {"measurement": "Hypokalaemia, treatment related AE", "setting": "all patients, all grades", "result": 28, "unit": "%"}, {"measurement": "Hypophosphataemia, treatment related AE", "setting": "all patients, all grades", "result": 64, "unit": "%"}, {"measurement": "Nausea, treatment related AE", "setting": "all patients, all grades", "result": 61, "unit": "%"}, {"measurement": "Rash, treatment related AE", "setting": "all patients, all grades", "result": 31, "unit": "%"}, {"measurement": "Diarrhoea, AE regardless of causality", "setting": "all treated subjects", "result": 72, "unit": "%"}]}
